Reference: patent publication US8309064B2, “Skin care compositions comprising phenoxyalkyl amines” (Conopco, Inc., priority 2009, dated 2012)

tested on: Melanoderm tissue equivalent model MEL-300 containing melanocytes; assay: Inhibition of melanogenesis (total melanin content) in Melanoderm tissue equivalent model; format: cell-based; conditions: Melanocyte, 336 h; 5 μM in maintenance medium, 14 days, total melanin content, DMSO vehicle control
Method: Melanoderm tissue equivalent model MEL-300 (MatTek: Ashland, Mass.) containing melanocytes obtained from dark skin individuals were cultured as per supplier instructions. Components were added to the maintenance medium phase (no topical treatments) at a final concentration of 5 μM for 14 days at which time the experiment was terminated and the tissues assessed for melanin content. Medium and treatments were changed three times per week. DMSO was utilized as the vehicle control and all treatments were performed at least in duplicate.
For quantification of total melanin, each Melanoderm was placed into an individual Eppendorf tube (2 mL) into which 250 μL of Solvable™ tissue solubilizer (Packard Bioscience Co., Cat#6NE9100) was added. Each tube was vortexed and incubated at 60° C. for 18 hours. Each sample was then centrifuged (5-minutes at 13,000 RPMs) to remove any particulates. 100 or 200 μL of supernatant were transferred to a 96 well microtiter plate and the absorbance read at 490 nm. Total melanin content was calculated from a standard curve using synthetic melanin (Sigma Cat# M8631). Data was analyzed for significance using the t-test in Microsoft Excel to generate p-values (p-values less than 0.01 represent 99% confidence, p values of 0.05 represent 95% confidence both of which are statistically significant).

In order of falling inhibition at 5 µM:
1. CN(C)CCCCCCOc1ccccc1-c1ccccc1 [5v, 6-(2-phenylphenoxy)-N,N-dimethylhexan-1-amine]  56.7%
2. CC(C)(C)NCCCCCCOc1ccccc1C(C)(C)C [5cc, 6-(2-tert-butylphenoxy)-N-tert-butylhexan-1-amine]  55.2%
3. CC(C)(C)NCCCCCCOc1ccccc1-c1ccccc1 [5dd, 6-(2-phenylphenoxy)-N-tert-butylhexan-1-amine]  54.8%
4. CN(C)CCCCCCOc1cccc2ccccc12 [5w, N,N-dimethyl-6-(naphthalen-4-yloxy)hexan-1-amine]  51.3%
5. CN(C)CCCCCCOc1ccccc1C(C)(C)C [5u, 6-(2-tert-butylphenxoy)-N,N-dimethylhexan-1-amine]  49.6%
6. CC(C)c1ccccc1OCCCCCCN(C)C [5t, 6-(2-isopropylphenoxy)-N,N-dimethylhexan-1-amine]  48.5%
7. Cc1ccc(OCCCCCCNC(C)(C)C)cc1 [5y, 6-(p-tolyloxy)-N-tert-butylhexan-1-amine]  47.5%
8. CCN(CC)CCCCCCOc1ccccc1C [5l, 6-(o-tolyloxy)-N,N-diethylhexan-1-amine]  45.6%
9. CC(C)c1ccccc1OCCCCCCNC(C)(C)C [5bb, 6-(2-isopropylphenoxy)-N-tert-butylhexan-1-amine]  44.2%
10. Cc1ccccc1OCCCCCCN1CCOCC1 [5n]  42.1%
11. Cc1ccc(OCCCCCCN(C)C)cc1 [5q, 6-(p-tolyoxy)-N,N-dimethylhexan-1-amine]  41.5%
12. CCNCCCCCCOc1ccccc1CC [5hh, 6-(2-ethylphenoxy)-N-ethylhexan-1-amine]  37.1%
13. Cc1cccc(OCCCCCCN(C)C)c1 [5p, 6-(m-tolyoxy)-N,N-dimethylhexan-1-amine]  37.1%
14. CC(C)(C)NCCCCCCOc1cccc2ccccc12 [5ee, N-tert-butyl-6-(naphthalen-4-yloxy)hexan-1-amine]  35.9%
15. CCNCCCCCCOc1cccc2ccccc12 [5gg, N-ethyl-6-(naphthalen-1-yloxy)hexan-1-amine]  35%
16. Cc1ccccc1OCCCCCCN(CCO)CCO [5m, 6-(o-tolyloxy)-N,N-di(2-hydroxyethyl)hexan-1-amine]  32.9%
17. CCc1ccccc1OCCCCCCN(C)C [5r, 6-(2-ethylphenoxy)-N,N-dimethylhexan-1-amine]  32.9%
18. OCCNCCCCCCCc1ccccc1 [5kk, 2-(7-phenylheptylamino)ethanol]  32.7%
19. COCCNCCCCCCOc1ccccc1C [5c, 6-(o-tolyloxy)-N-(2-methoxyethyl)hexan-1-amine]  31.7%
20. OCCNCCCCCCOC1CCCCC1 [5ll, 2-(6-(cyclohexyloxy)hexylamino)ethanol]  25%
21. Cc1ccccc1OCCCCCCN(C)C [5j, 6-(o-tolyloxy)-N,N-dimethylhexan-1-amine]  24.2%
22. Cc1ccccc1OCCCCCCNCCO [5b, 2-[[6-(2-methylphenoxy)hexyl]amino]-ethanol]  24.1%
23. CCN(C)CCCCCCOc1ccccc1C [5k, 6-(o-tolyoxy)-N-ethyl-N-methylhexan-1-amine]  23.6%
24. Cc1ccccc1OCCCCCCNC(C)(C)C [5i, 6-(o-tolyloxy)-N-tert-butylhexan-1-amine]  23.2%
25. Cc1ccccc1OCCCCCCn1ccnc1 [5o, 1-(6-(o-tolyloxy)hexyl)-1H-imidazole]  22.1%
26. OCCNCCCCCCOc1ccccc1 [5a, 2-(6-phenoxyhexylamino)ethanol]  21.9%
27. Cc1ccccc1OCCCCCNCCO [5d, 2-(5-(o-tolyloxy)pentylamino)ethanol]  20.8%
28. CCNCCCCCCOc1ccccc1C [5ff, 6-(o-tolyloxy)-N-ethylhexan-1-amine]  18.1%
29. Cc1ccccc1OCCCCNCCO [5e, 2-(4-(o-tolyloxy)butylamino)ethanol]  17.9%
30. Cc1ccccc1OCCCNCCO [5f, 2-(3-(o-tolyloxy)propyalmino)ethanol]  10.7%
31. Cc1ccccc1OCCNCCO [5g, 2-(2-(o-tolyloxy)ethylamino)ethanol]  3.2%
32. CC(=O)N(CCO)CCCCCCOc1ccccc1C [5jj, N-(6-(o-tolyloxy)hexyl)-N-(2-hydroxyethyl)acetamide]  -5.2%
33. Cc1ccccc1OCCCCCCN [5ii, 6-(o-tolyloxy)hexan-1-amine]  -6.9%

same assay, conditions: Melanoderm MEL-300, 5 μM, 14 days

In the case of `Cc1ccccc1OCCCCCCNCCO` [5b, 2-[[6-(2-methylphenoxy)hexyl]amino]-ethanol], the “melanogenesis inhibition (in words)” value is reported as “highest melanogenesis inhibition in this set”.
`Cc1ccccc1OCCCCCNCCO` [5d, 2-(5-(o-tolyloxy)pentylamino)ethanol] was tested, and the “melanogenesis inhibition (in words)” value was “highest melanogenesis inhibition in this set”.
